In patent publication US10994017B2, “Nerve labeling compositions and uses thereof” (Avelas Biosciences, Inc., priority 2016, dated 2021):
Square brackets hold non-standard residues; d marks the D form. Peptide text beside a SMILES is read from it. * marks the point of attachment. X2 = O=C(NCCN1C(=O)CC(*)C1=O)c1ccc(C(=O)O)c(-c2c3ccc(=O)cc-3oc3cc(O)ccc23)c1; X1 = O=C(O)c1ccc(C(=O)*)cc1-c1c2ccc(=O)cc-2oc2cc(O)ccc12

Experiments:
[1] = test system: splanchic nerve; assay: In vivo fluorescence imaging of splanchnic nerve (FIG. 4); conditions: FIG. 4, mouse, fluorescence versus reflected light images
Text: (§1) Nerves are more clearly visualized utilizing NDM-38.

[2] = test system: sciatic nerve; assay: Fluorescence contrast in murine nerves: in vivo imaging of sciatic nerve after intravenous injection; set-up: species or system mouse; conditions: for N/B contrast compared to the equivalent NDMs comprising L-amino acids / N/S contrast compared to the equivalent NDMs comprising L-amino acids: retro-inverso (D-amino acids) versus NDM-39, NDM-41
Method: The visualization contrast activity of fluorescent peptides for nerve imaging was assessed using male immunocompetent hairless SKH1-E mice purchased from Charles River (Charles River, Wilmington, Mass. 01887, USA). SKH1-E mice weighing 25-30 grams were housed in group of 4 in individually ventilated IVC disposable cages (Innovive, Inc., San Diego, Calif. 92121, USA) and maintained under controlled environmental conditions (12-h/12-h light/dark cycle; temperature of 64-79F and relative humidity of 30-70%) for at least 5 days before experimental use. Animals had free access to standard laboratory rodent diet (Cat. #2018, Teklad Global 18% Protein Rodent Diet; Harlan Laboratories, Inc. Indianapolis, Ind. 46250, USA) and acidified drinking water throughout the course of study. All experiments were carried out under Institutional Animal Care and Use Committee (IACUC) approved protocol.
On the day of study, each involved mouse was weighed, examined for general condition and restrained using a rotating tail injector (Cat. #RTI, Braintree Scientific, Braintree, Mass. 021585, USA) for intravenous (tail vein) injection of test compound in conscious animal. The test compounds were tested (25-150 nmol in 0.1 mL/mouse) was then injected intravenously in mouse using a 28G1/2 Insulin syringe (Cat. #14-826-79, Becton Dickinson and Company, Franklin Lakes, N.J. 07417, USA). After the intravenous injection, each involved mouse was housed back in its assigned cage and kept under controlled environmental conditions before being examined for fluorescence labeling of the sciatic nerve.
Two hours after the intravenous injection, each involved mouse was terminally anesthetized with a mixture of ketamine HCl (Zetamine™, 100 mg/mL, ANADA 200-055 approved by FDA, NDC-13985-702-10; VETone®, Boise, Id. 83705, USA) and xylazine (Rompun™, 100 mg/mL, NADA-047-956 approved by FDA, Bayer HealthCare, LLC, Animal Health Divison, KS 66201, USA) which consisted of a combination of 100 mg/kg of ketamine with 10 mg/kg of xylazine administered intraperitoneally. The terminally anesthetized mouse was transferred on the piece of cork (4×4 inches, Quartet®, ACCO Brands, Lincolnshire, Ill. 60069, USA) for blunt dissection of sciatic nerve after checking the toe pinch reflex. The sciatic nerve was exposed by removing skin from the dorsal surface of the thigh and blunt dissecting the muscles parallel and posterior to the femur after checking […] (no reflex to toe pinch) in terminally anesthetized mouse. Full body imaging of the terminally anesthetized mouse with both sciatic nerves exposed was then performed using a computerized UVP BioSpectrum® 500 Imaging System fitted with appropriate excitation/emission filters for fluorescein, Cy5, or other dye detection and a VisionWorks® LS Software (UVP-BioSpectrum Imaging System, Upland, Calif., USA) for image acquisition and analysis. After the mouse full body imaging, the exposed and saline moisturized sciatic nerves were subsequently imaged using computerized fluorescence stereomicroscope (SZX 10, Olympus Optical, CO, LTD, Japan) interfaced with PictureFrame™, an image processing application suitable for image acquisition and analysis (Optronics, Goleta, Calif. 93117) or an in-house built Microscope Imaging System interfaced with Spot Software 5.0 (SPOT Imaging Solutions, Sterling Heights, Mich. 48314) for image acquisition and analysis. All above-mentioned Imaging Systems were equipped with appropriate excitation/emission filters for fluorescein, Cy5, or other dye detection. Following the imaging session, all captured images of fluorescently labeled sciatic nerves were examined and analyzed using the image processing program Image J to generate quantitative fluorescence data. For each involved mouse, fluorescence intensity of each examined sciatic nerve was acquired by drawing an area on the surface of the exposed sciatic nerve using Image J features and capabilities. […]

[3] = test system: dorsal subcutaneous cervical or thoracic nerves; assay: In vivo fluorescence imaging of dorsal subcutaneous cervical and thoracic nerves (FIG. 2, FIG. 3); set-up: species or system mouse; conditions: FIG. 2 and FIG. 3, fluorescence versus reflected light images
Text: as §1

[4] = test system: renal nerve; assay: In vivo fluorescence imaging of renal nerve (FIG. 5); set-up: species or system mouse; conditions: FIG. 5, fluorescence versus reflected light images

SMILES | fluorescence contrast (nerve/background) of splanchic nerve [1] | N/B contrast relative to NDMs with glycine linkers ([2]; alanine linker versus NDM-44) | N/S contrast relative to NDMs with glycine linkers ([2]; alanine linker versus NDM-44) | N/B contrast compared to the equivalent NDMs comprising L-amino acids [2] | N/S contrast compared to the equivalent NDMs comprising L-amino acids [2] | fluorescence contrast (nerve/background) of mouse dorsal subcutaneous cervical or thoracic nerves [3] | fluorescence contrast (nerve/background) of mouse renal nerve [4] | fluorescence contrast (nerve/background) of mouse sciatic nerve ([2]; FIG. 1, fluorescence versus reflected light images)
CC(=O)N[C@H](CCCCNC(=O)c1ccc(C(=O)O)c(-c2c3ccc(=O)cc-3oc3cc(O)ccc23)c1)C(=O)N[C@H](C)C(=O)N[C@H](C)C(=O)N[C@H](C)C(=O)N[C@@H](C(=O)N[C@H](Cc1c[nH]cn1)C(=O)N[C@H](CCC(=O)O)C(N)=O)[C@H](C)O [NDM-38, Ac-[D-Lys(6FAM)]-(D-Ala)-(D-Ala)-(D-Ala)-(D-Thr)-(D-His)-(D-Glu)-NH2] (Ac-[dK](X1)[dA][dA][dA][dT][dH][dE]-NH2) | very high fluorescence contrast | higher | higher | substantially higher | substantially higher | very high fluorescence contrast | very high fluorescence contrast | –
CC(=O)N[C@H](CSC1CC(=O)N(CCNC(=O)c2ccc(C(=O)O)c(-c3c4ccc(=O)cc-4oc4cc(O)ccc34)c2)C1=O)C(=O)N[C@H](C)C(=O)N[C@H](C)C(=O)N[C@H](C)C(=O)N[C@@H](C(=O)N[C@H](Cc1c[nH]cn1)C(=O)N[C@H](CCC(=O)O)C(N)=O)[C@H](C)O (stereo partly drawn) [NDM-40, Ac-[D-Cys(6FAM)]-(D-Ala)-(D-Ala)-(D-Ala)-(D-Thr)-(D-His)-(D-Glu)-NH2] (Ac-[dC](X2)[dA][dA][dA][dT][dH][dE]-NH2) | – | – | – | substantially higher | substantially higher | – | – | very high fluorescence contrast
